Values quoted from earlier work in US6706892B1, “Pulmonary delivery for bioconjugation” (priority 1999, dated 2004).

Assays:
[1] = in vivo
breast cancer = conditions: in vivo

SMILES	half-life [1]	cut in the risk of breast cancer (breast cancer) [%]
CC1=NS(=O)(=O)c2cc(Cl)ccc2N1 [Diazoxide]	about 24 hours	–
O=C(c1ccc(OCCN2CCCCC2)cc1)c1c(-c2ccc(O)cc2)sc2cc(O)ccc12 [Raloxifene]	–	≤ 60
